Bases are written 5' to 3'; sugars and linkages follow in the same order, as letters with counts (s phosphorothioate, o phosphodiester; PS: all linkages phosphorothioate). The collection does not say whether C is 5-methylated. l = locked nucleic acid (LNA); d = 2'-deoxy (DNA)
These sequences were tested against Tau (assay: rat primary cortical neurons, FLIPR, 25 uM ASO).
“TAACCAATTAACCGAACTGC (sugars l3 d14 l3, PS)” was tested, and the calcium oscillation score was 125 % of control. In the case of “CAGCTCTTCCATAAGCAGGG (sugars l3 d14 l3, PS)”, the calcium oscillation score is reported as 60.6 % of control. In the case of “ATACAGTTGGCCCTACCATA (sugars l3 d14 l3, PS)”, the calcium oscillation score is reported as 30.9 % of control. For CTCTCAAAAATCAACGC (sugars l4 d9 l4, PS), the calcium oscillation score was 66.3 % of control. GTAGACTATTTGCA (sugars l3 d8 l3, PS) was tested, and the calcium oscillation score was 105 % of control. “ATTTAGTTTTCCCACCCA (sugars l1 d15 l2, PS)” was tested, and the calcium oscillation score was 48 % of control. TTTCAACTCTTAGCATC (sugars l4 d9 l4, PS) was tested, and the calcium oscillation score was 70.8 % of control. In the case of “CCAGGGACGTGGGTGATATT (sugars l3 d14 l3, PS)”, the calcium oscillation score is reported as 0 % of control. With “CCTACTTTATTCCCTTAA (sugars l2 d12 l4, PS)” the calcium oscillation score was 86.8 % of control. For AGTCCCGTCTTTGC (sugars l3 d8 l3, PS), the calcium oscillation score was 2.61 % of control. For CGAATTACCTAACCTC (sugars l3 d9 l4, PS), the calcium oscillation score was 88.2 % of control. With TCCAATACTAGATCTA (sugars l4 d9 l3, PS) the calcium oscillation score was 71.9 % of control. In the case of “CAATTCTCAGCACACCA (sugars l4 d11 l2, PS)”, the calcium oscillation score is reported as 22.5 % of control. In the case of “CAATTTGGAAAGATGAAATT (sugars l3 d14 l3, PS)”, the calcium oscillation score is reported as 3.89 % of control. For “CAATCCTAAACAATGCC (sugars l2 d11 l4, PS)”, the calcium oscillation score was 41.8 % of control. In the case of AATAAGAAAGGAACGC (sugars l4 d8 l4, PS), the calcium oscillation score is reported as 5.95 % of control. TGGATATAGTTAAGGC (sugars l4 d9 l3, PS) was tested, and the calcium oscillation score was 107 % of control. In the case of “TTTCTCAATGTAACCTC (sugars l3 d10 l4, PS)”, the calcium oscillation score is reported as 71.6 % of control. “GAGACCACATTATCATCCAT (sugars l3 d14 l3, PS)” was tested, and the calcium oscillation score was 52.4 % of control. For “TTTACCCATCTTAATTCATT (sugars l4 d14 l2, PS)”, the calcium oscillation score was 78.1 % of control. With “CTCACTTTACACATTAAATT (sugars l4 d12 l4, PS)” the calcium oscillation score was 59.8 % of control. For ATCGCTTCCAGTCC (sugars l3 d8 l3, PS), the calcium oscillation score was 29.9 % of control. With “CATGAGCACTAACTCTAAGT (sugars l3 d14 l3, PS)” the calcium oscillation score was 47.6 % of control. AACTGGTTTGTAGACT (sugars l3 d10 l3, PS) was tested, and the calcium oscillation score was 0 % of control. With ATTAATTACACCCCTG (sugars l3 d9 l4, PS) the calcium oscillation score was 5.47 % of control. With “AATGTCCAAAAATCCCC (sugars l2 d11 l4, PS)” the calcium oscillation score was 53 % of control. CCCGTGGTCTGTCTTG (sugars l3 d10 l3, PS) was tested, and the calcium oscillation score was 0 % of control. TGATACCCTTCCTCAG (sugars l2 d12 l2, PS) was tested, and the calcium oscillation score was 4.76 % of control. “ATATTGAACTCACCCAC (sugars l2 d11 l4, PS)” was tested, and the calcium oscillation score was 54.3 % of control. For TAATCCTGTGCTTCAG (sugars l3 d10 l3, PS), the calcium oscillation score was 75.8 % of control. For “CAGCTAAGACCCTCAGGTTT (sugars l3 d14 l3, PS)”, the calcium oscillation score was 38.5 % of control. In the case of “ATTTCCAAATTCACTTTTAC (sugars lllddldddddddddlldll, PS)”, the calcium oscillation score is reported as 110 % of control. With CAAACTTTTACTCTGAC (sugars l4 d9 l4, PS) the calcium oscillation score was 63.8 % of control. For “CACCACAGTCTTTTAAT (sugars l4 d10 l3, PS)”, the calcium oscillation score was 73.7 % of control. For “CTTAGTCATCTTCCCTCA (sugars l2 d14 l2, PS)”, the calcium oscillation score was 93.8 % of control. For “AACAAACATCTAAACACCTC (sugars l3 d13 l4, PS)”, the calcium oscillation score was 75.1 % of control. AGTCAAGCATCACGTT (sugars l3 d10 l3, PS) was tested, and the calcium oscillation score was 42.2 % of control. In the case of “CTTTATTTCCAAATTCAC (sugars l4 d10 l1 d1 l2, PS)”, the calcium oscillation score is reported as 5.59 % of control. “ATGACATTTTAAACCCC (sugars l3 d11 l3, PS)” was tested, and the calcium oscillation score was 54.9 % of control. “TTAACTCATCAACACCTTT (sugars l3 d12 l4, PS)” was tested, and the calcium oscillation score was 84 % of control. For “TAACCAACTTTCATCTACTT (sugars l3 d14 l3, PS)”, the calcium oscillation score was 47.2 % of control. In the case of ATCACTTCGAACTCCT (sugars l3 d10 l3, PS), the calcium oscillation score is reported as 159 % of control. “ATGATGGATGTTGCCTAATG (sugars l3 d14 l3, PS)” was tested, and the calcium oscillation score was 0 % of control.
